Reference: patent publication US20050191294A1, “Compositions and methods of use of targeting peptides for diagnosis and therapy” (Board of Regents, The University of Texas System, priority 2003, published 2005)
Where a SMILES comes first, the peptide text is derived from it. Bridges are numbered along the chain shown (N, C = ends). Primed or numbered codes have the meaning given here. Where no end group is shown, it is not given here. [ ]: non-standard residue; d: D form. FITC′ = not defined here

Key:
recombinant GRP78 = target: T1, recombinant GRP78 (Mesocricetus auratus, UniProt P07823); test: In vitro phage binding assay on immobilized GRP78; settings: increasing concentrations of synthetic peptide against the corresponding phage
T1 construct: purchased Stressgen, Victoria, Canada
T1 sequence (P07823 19-654): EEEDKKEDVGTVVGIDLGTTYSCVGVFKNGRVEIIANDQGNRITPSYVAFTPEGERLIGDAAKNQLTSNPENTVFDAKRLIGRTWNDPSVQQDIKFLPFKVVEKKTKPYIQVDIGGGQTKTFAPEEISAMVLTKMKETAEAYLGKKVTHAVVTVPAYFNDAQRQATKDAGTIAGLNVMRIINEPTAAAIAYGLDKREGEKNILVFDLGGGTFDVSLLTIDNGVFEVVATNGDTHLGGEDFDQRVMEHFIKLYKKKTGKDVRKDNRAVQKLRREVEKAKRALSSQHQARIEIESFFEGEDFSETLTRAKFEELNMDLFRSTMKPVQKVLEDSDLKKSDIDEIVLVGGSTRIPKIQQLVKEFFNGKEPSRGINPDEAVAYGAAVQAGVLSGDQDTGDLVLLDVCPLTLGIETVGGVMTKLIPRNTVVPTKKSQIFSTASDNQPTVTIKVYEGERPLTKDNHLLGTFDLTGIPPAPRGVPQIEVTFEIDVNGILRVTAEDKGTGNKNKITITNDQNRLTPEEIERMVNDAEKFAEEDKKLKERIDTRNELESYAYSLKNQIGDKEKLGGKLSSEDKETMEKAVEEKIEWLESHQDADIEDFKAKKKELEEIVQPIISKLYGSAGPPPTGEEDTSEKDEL
Description: In vitro phage binding assays. GRP78, HSP70, HSP90 (all from Stressgen, Victoria, Canada) and bovine serum albumin (BSA) were immobilized on microtiter wells of 96-well plates overnight at 4° C. Wells were washed twice with phosphate-buffered saline (PBS), blocked with PBS containing 3% BSA for 1 hour at room temperature (RT), and incubated with 10^9 transducing units (TU) of WIFPWIQL (SEQ ID NO:6)-phage, WDLAWMFRLPVG (SEQ ID NO:7)-phage, or insertless control phage (Fd-tet) in 50 μl of PBS containing 1.5% BSA. After 2 hours at RT, wells were washed with PBS, and bound phage were recovered by infection with host bacteria (log-phase Escherichia coli K91 kan; OD600≈2). Aliquots of the bacterial culture were plated onto Luria-Bertani broth (LB) agar plates supplemented with 40 μg/ml tetracycline and 100 μg/ml kanamycin. Plates were incubated overnight at 37° C., and phage TU were counted in triplicate plates. Increasing concentrations of synthetic peptides WIFPWIQL (SEQ ID NO:6), WDLAWMFRLPVG (SEQ ID NO:7)-, and an unrelated control peptide CARAC (SEQ ID NO:9) (Genemed Synthesis Inc., San Francisco, Calif.) were used to evaluate competitive inhibition of phage binding. All peptides were solubilized in a standard stock solution of 10% dimethylsulfoxide (DMSO) and diluted to working concentrations for the assays.

[1] = test system: wild-type mice obese due to old age; test: Treatment of age-related obesity in regular diet-fed wild-type mice; type: in vivo, mouse
Description: Fat resorption and metabolic analysis. […] Tissue lipids were measured as described.

[2] = test system: diet-induced obese C57BL/6 mice; test: Fat resorption and metabolic analysis in diet-induced obese mice; settings: 4 weeks of treatment
Source text: Apoptosis was detected by using standard TUNEL immunohistochemistry.
Fat resorption and metabolic analysis. High-calorie diet for obesity induction (TD97366: 25.4% fat, 21.79% protein, 38.41% carbohydrate) was purchased from Harlan Teklad. […] Stocks of [sequence] (SEQ ID NO:4)-GG-D(KLAKLAK)2 (SEQ ID NO:11), [sequence] (SEQ ID NO:10)-GG-D(KLAKLAK)2 (SEQ ID NO:11), D(KLAKLAK)2, CARAC (SEQ ID NO:9)-GG-D(KLAKLAK)2 (SEQ ID NO:11), and [sequence] (SEQ ID NO:4) chemically synthesized, cyclized, and HPLC-purified to 99% purity (AnaSpec) were prepared by dissolving lyophilized peptides in DMSO to a concentration of 65 mM. […] Mouse weight, body temperature, and food and water consumption were monitored weekly. Tissue lipids were measured as described. […] Oxygen consumption and heat generation of fasting mice were measured for 24 h by indirect calorimetry with OXYMAX (Columbus Instruments, Columbus, Ohio). To quantify spontaneous activity, 8 mice (2 mice per cage) were placed in automated photocell activity cages (AccuScan Instruments, Columbus, Ohio). […] Horizontal locomotor activity was computer-monitored as the number of infrared beam breaks, which were detected for the period of 1 h and recorded every hour for the duration of the test (14 h) by using a Versamax Analyser. […]

DU145 cells = test: Cell apoptosis assay (Annexin-V staining), DU145; type: cell-based, human; settings: DU145, 30 μM, 6 hours
Source text: Cell apoptosis assays. Peptides were synthesized to our specifications at greater than 95% purity (Genemed Synthesis Inc., San Francisco, Calif.). Apoptosis was induced with a pro-apoptotic motif D(KLAKLAK)2 that disrupts mitochondrial membranes and is inert to eukaryotic plasma membranes. An equimolar concentration of the targeted [(WIFPWIQL (SEQ ID NO:6)-GG-D(KLAKLAK)2 (SEQ ID NO:11) and WDLAWMFRLPVG (SEQ ID NO:7)-GG-D(KLAKLAK)2) (SEQ ID NO:11)] and untargeted [(WIFPWIQL (SEQ ID NO:6)-+(KLAKLAK)2 (SEQ ID NO:11) and WDLAWMFRLPVG (SEQ ID NO:7)-+(KLAKLAK)2 (SEQ ID NO:11)] peptides was used. Human prostate cancer-derived DU 145 cells were grown in tissue chamber slides (Lab-Tek II Chamber Slide System; Nalge Nunc International Corp., Naperville, Ill.). Cells were washed with PBS and incubated with 30 μM (in 300 μl DMEM supplemented with 10% FBS, penicillin and streptomycin) of the targeted and untargeted peptides for 6 hours. Pure DMEM was used as an internal negative control. Apoptosis was detected with the Annexin-V-FLUOS Staining kit (Roche, Manheim, Germany) according to the manufacturer's instructions.

LNCaP cells [3] = test: Cell apoptosis assay (Annexin-V staining), LnCap; type: cell-based, human; settings: LnCap (data not shown)
[4] = test system: DU145-derived human prostate carcinoma xenografts; test: Targeted treatment of nude mice bearing DU145 human prostate carcinoma xenografts; type: in vivo; settings: 300 μg/week per mouse i.v.; controls vehicle and equimolar unconjugated mixtures; P<0.001
Description: Establishment of mice bearing human tumor xenografts. Male athymic nu/nu (nude) mice were obtained commercially from Harlan-Sprague-Dawley (Indianapolis, Ind.). Human prostate cancer xenografts were established by injection of DU 145 cells (10^6 cells in a 200 μl DMEM) in the subcutaneous tissue of 2 months old male nude mice.
Targeted treatment ofnude mice bearing human prostate carcinoma xenografts. DU145-derived tumor xenografts were established in male nude mice as described above. GRP78-targeting peptides used for therapy were coupled to the pro-apoptotic motif D(KLAKLAK)2 ([…]) and controls were treated with an equimolar concentration of the GRP78-targeting peptides and the pro-apoptotic motif. Mice were divided into groups of seven animals and treatment started when mean tumor volume for each group was around 200 mm^3. Two-dimensional measurements of tumors were made by caliper on anesthetized mice, and were used to calculate tumor volume. […]
Statistical analysis. Experiments are expressed as mean±standard errors of the means (SEM) of triplicate plates and analyzed by using the two-tailed Student's t test (t test). Tumor volumes were calculated individually for each mouse throughout the study and results are also expressed as mean±SEM for all the groups.

white fat vasculature = test: In vivo homing of fitc-peptides in wild-type mice; set-up: species or system mouse
LNCaP cells [5] = test: Induction of apoptosis, WST-1 cell viability assay, LNCaP; type: cell-based, human; settings: 10-100 μM, 24-72 hours
Description: (§1) Induction and Quantification of Apoptosis with […] (SEQ ID NO:1)-GG-D(KLAKLAK)2 (SEQ ID NO:11) Synthetic Peptide. Soluble […] (SEQ ID NO:1)-GG-D(KLAKLAK)2 (SEQ ID NO:11), […] […] The unrelated control peptide […] (SEQ ID NO:5)-GG-D(KLAKLAK)2 (SEQ ID NO:11) was synthesized by Genemed Synthesis, Inc. (South San Francisco, Calif.). LNCaP, MDA-PCa-2b cells (each at 3×10^4 per well), and EF43fgf-4 cells (7) at 2×10^4 per well were seeded in triplicates and incubated in 96-well plates (Becton Dickinson, Franklin Lakes, N.J.) for 24-72 hours at 37° C., with serially increasing concentrations (10-100 μM) of […] (SEQ ID NO:1))-GG-D(KLAKLAK)2 (SEQ ID NO:11) peptide, […] (SEQ ID NO:1)-peptide alone, D(KLAKLAK)2 (SEQ ID NO:11) peptide alone, or an equimolar mixture of the unconjugated peptides […] […] LNCaP cells were also exposed in parallel to increasing concentrations (20-100 μM) of […] (SEQ ID NO:1)-GG-D(KLAKLAK)2 (SEQ ID NO:11) and unrelated control peptides […] (SEQ ID NO:4)-GG-D(KLAKLAK)2 (SEQ ID NO:11) or […] (SEQ ID NO:5)-GG-D(KLAKLAK)2 (SEQ ID NO:11), under the same conditions. […] (SEQ ID NO:1)-GG-D(LAKLAK)2 (SEQ ID NO:11) peptide for 3 hours. Response was evaluated by a cell viability assay (WST-1; Roche, Mannheim, Germany).

MDA-PCa-2b cells = test: Induction of apoptosis, WST-1 cell viability assay, MDA-PCa-2b; type: cell-based, human; settings: 10-100 μM, 24-72 hours
Description: as §1

**Q.** “WDLAWMFRLPVG (SEQ ID NO:7): synthetic GRP78-binding peptide” was tested. Which “inhibition of phage binding to GRP78 by synthetic peptide” value (recombinant GRP78) did it give?
**A.** inhibit binding of the corresponding phage in a dose-dependent manner

**Q.** For `CC(C)C[C@@H](NC(=O)[C@@H](CCCCN)NC(=O)CNC(=O)CNC(=O)[C@@H]1CSSC[C@H](N)C(=O)N[C@@H](CCCCN)C(=O)NCC(=O)NCC(=O)N[C@@H](CCCNC(=N)N)C(=O)N[C@@H](C)C(=O)N[C@@H](CCCCN)C(=O)N[C@@H](CC(=O)O)C(=O)N1)C(=O)N[C@H](C)C(=O)N[C@H](CCCCN)C(=O)N[C@H](CC(C)C)C(=O)N[C@H](C)C(=O)N[C@H](CCCCN)C(=O)N[C@H](CCCCN)C(=O)N[C@H](CC(C)C)C(=O)N[C@H](C)C(=O)N[C@H](CCCCN)C(=O)N[C@H](CC(C)C)C(=O)N[C@H](C)C(=O)N[C@H](CCCCN)C(=O)O` (H-CKGGRAKDCGG[dK][dL][dA][dK][dL][dA][dK][dK][dL][dA][dK][dL][dA][dK]-OH; disulfide 1-9), which toxicity [1] is on record?
**A.** without detectable toxicity

**Q.** And the “apoptosis and appearance of control organs such as liver” value [2]?
**A.** apoptosis was not detected in the control tissues

**Q.** Which results are given for “WIFPWIQL (SEQ ID NO:6)-GG-D(KLAKLAK)2 (SEQ ID NO:11): GRP78-targeted pro-apoptotic peptide (WIFPWIQLGG[dK][dL][dA][dK][dL][dA][dK][dK][dL][dA][dK][dL][dA][dK])”?
**A.** toxicity / apoptosis (Annexin-V staining) (DU145 cells): induced apoptosis; toxicity / apoptosis (Annexin-V staining) (LNCaP cells [3]): induced apoptosis; mean tumor volume relative to the controls [4]: significantly smaller

**Q.** Which results are given for “CKGGRAKDC (SEQ ID NO:4)-fitc: soluble CKGGRAKDC peptide linked to fluorescein (fitc) at its C-terminus (CKGGRAKDC-{FITC′}; also: cyclized, bridge type not given here)”?
**A.** presence in isolated ex-vivo blood vessels from white fat tissue (white fat vasculature; mouse, in vivo): presence; detection in white fat vasculature (white fat vasculature; wild-type C57BL/6 mice, i.v., 5 min prior to tissue collection): specifically localized to and was internalized by blood vessels of subcutaneous and peritoneal white fat; homing to blood vessels of brown fat, liver and other control organs (white fat vasculature; wild-type mice, i.v.): no CKGGRAKDC (SEQ ID NO:4)-fitc homing was observed

**Q.** For “WDLAWMFRLPVG (SEQ ID NO:7)-GG-D(KLAKLAK)2 (SEQ ID NO:11): GRP78-targeted pro-apoptotic peptide (WDLAWMFRLPVGGG[dK][dL][dA][dK][dL][dA][dK][dK][dL][dA][dK][dL][dA][dK])”, which “toxicity / apoptosis (Annexin-V staining)” value (DU145 cells) is on record?
**A.** induced apoptosis

**Q.** What about the “toxicity / apoptosis (Annexin-V staining)” value (LNCaP cells [3]) of the same compound?
**A.** induced apoptosis

**Q.** What about the “mean tumor volume relative to the controls” value [4] of the same compound?
**A.** significantly smaller

**Q.** With “D(KLAKLAK)2 (SEQ ID NO:11): amphipathic, α-helix-forming anti-microbial pro-apoptotic peptide KLAKLAKKLAKLAK (D-amino acids) [reference compound]” as the compound, how does the “programmed cell death / toxic effect (WST-1 cell viability)” value (shortened to “programmed cell death / toxic effect”) (LNCaP cells [5]) read?
**A.** no measurable toxic effects

**Q.** And the “programmed cell death / toxic effect” value (MDA-PCa-2b cells)?
**A.** no measurable toxic effects

**Q.** With “WIFPWIQL (SEQ ID NO:6): synthetic GRP78-binding peptide” as the compound, how does the “inhibition of phage binding to GRP78 by synthetic peptide” value (recombinant GRP78) read?
**A.** inhibit binding of the corresponding phage in a dose-dependent manner

**Q.** How did the “programmed cell death / toxic effect” value (LNCaP cells [5]) turn out when “CGRRAGGSC (SEQ ID NO:1): soluble IL-11-mimic peptide alone, used as control” was run?
**A.** no measurable toxic effects

**Q.** What about the “programmed cell death / toxic effect” value (MDA-PCa-2b cells) of the same compound?
**A.** no measurable toxic effects
